# From ChEMBL document CHEMBL3885861, “Open TG-GATES”
# Organism: Rattus norvegicus
# Experiment: Open TG-GATES - Regimen: Single
# Type: toxicity, organism-based, Sprague-Dawley
# Set-up: regimen Single, gender Male, age 6 weeks
# Conditions: in vivo, po, 300 mg/kg, route gavage, dose level Middle; for APTT / Bas / Eos / Fbg / Hb / Ht / Lym / MCH / MCHC / MCV / Mono / Neu / PT / Plat / RBC / Ret / WBC: tissue Blood; for KIDNEY_L / KIDNEY_R / KIDNEY_TOTAL: tissue Kidney; for LIVER: tissue Liver; for A/G / ALP / ALT / AST / BUN / CRE / Ca / Cl / DBIL / GLC / IP / K / LDH / Na / PL / RALB / TBIL / TC / TG / TP / gamma-GTP: tissue Plasma
smiles,measurement,setting,value
COC1=CC(=O)C[C@@H](C)[C@]12Oc1c(Cl)c(OC)cc(OC)c1C2=O [GRISEOFULVIN],TERMINAL_BW,3 h,212.4 g
same,APTT,3 h,18.3 s
same,Bas,3 h,0%
same,Eos,3 h,1.2%
same,Fbg,3 h,229.2 mg/dL
same,Hb,3 h,12.7 g/dL
same,Ht,3 h,37.4%
same,Lym,3 h,71.6%
same,MCH,3 h,21.5 pg
same,MCHC,3 h,34.1%
same,MCV,3 h,63.1 fL
same,Mono,3 h,3.4%
same,Neu,3 h,23.2%
same,PT,3 h,12.9 s
same,Plat,3 h,130.7 x10_4/uL
same,RBC,3 h,592 x10_4/ul
same,Ret,3 h,7.8%
same,WBC,3 h,110.1 x10_2/uL
same,KIDNEY_L,3 h,0.9 g
same,KIDNEY_R,3 h,0.9 g
same,KIDNEY_TOTAL,3 h,1.9 g
same,LIVER,3 h,9.7 g
same,A/G,3 h,1.6
same,ALP,3 h,1144 IU/L
same,ALT,3 h,40.8 IU/L
same,AST,3 h,69.2 IU/L
same,BUN,3 h,11.2 mg/dL
same,CRE,3 h,0.3 mg/dL
same,Ca,3 h,11 mg/dL
same,Cl,3 h,104.2 meq/L
same,DBIL,3 h,0.2 mg/dL
same,GLC,3 h,190.4 mg/dL
same,IP,3 h,8.7 mg/dL
same,K,3 h,4 meq/L
same,LDH,3 h,113.8 IU/L
same,Na,3 h,140.8 meq/L
same,PL,3 h,175.8 mg/dL
same,RALB,3 h,3.3 g/dL
same,TBIL,3 h,0.2 mg/dL
same,TC,3 h,84.8 mg/dL
same,TG,3 h,134.8 mg/dL
same,TP,3 h,5.3 g/dL
same,gamma-GTP,3 h,1.2 IU/L
same,TERMINAL_BW,6 h,212.5 g
same,APTT,6 h,17.7 s
same,Bas,6 h,0%
same,Eos,6 h,1%
same,Fbg,6 h,220.2 mg/dL
same,Hb,6 h,12.8 g/dL
same,Ht,6 h,38.1%
same,Lym,6 h,72.6%
same,MCH,6 h,21.8 pg
same,MCHC,6 h,33.6%
same,MCV,6 h,64.7 fL
same,Mono,6 h,3.6%
same,Neu,6 h,22.4%
same,PT,6 h,13.1 s
same,Plat,6 h,129.2 x10_4/uL
same,RBC,6 h,588.6 x10_4/ul
same,Ret,6 h,7.9%
same,WBC,6 h,82.9 x10_2/uL
same,KIDNEY_L,6 h,1 g
same,KIDNEY_R,6 h,1 g
same,KIDNEY_TOTAL,6 h,2 g
same,LIVER,6 h,9.5 g
same,A/G,6 h,1.8
same,ALP,6 h,1072.4 IU/L
same,ALT,6 h,37.2 IU/L
same,AST,6 h,68.4 IU/L
same,BUN,6 h,10.2 mg/dL
same,CRE,6 h,0.4 mg/dL
same,Ca,6 h,10.8 mg/dL
same,Cl,6 h,103.2 meq/L
same,DBIL,6 h,0.096 mg/dL
same,GLC,6 h,205.6 mg/dL
same,IP,6 h,9.7 mg/dL
same,K,6 h,4 meq/L
same,LDH,6 h,139.2 IU/L
same,Na,6 h,141.4 meq/L
same,PL,6 h,150.6 mg/dL
same,RALB,6 h,3.4 g/dL
same,TBIL,6 h,0.2 mg/dL
same,TC,6 h,79 mg/dL
same,TG,6 h,50.4 mg/dL
same,TP,6 h,5.4 g/dL
same,gamma-GTP,6 h,1.4 IU/L
same,TERMINAL_BW,9 h,210.4 g
same,APTT,9 h,17.3 s
same,Bas,9 h,0%
same,Eos,9 h,0.8%
same,Fbg,9 h,214 mg/dL
same,Hb,9 h,12.9 g/dL
same,Ht,9 h,38.2%
same,Lym,9 h,79.4%
same,MCH,9 h,21.4 pg
same,MCHC,9 h,33.9%
same,MCV,9 h,63.1 fL
same,Mono,9 h,2.6%
same,Neu,9 h,17%
same,PT,9 h,13.6 s
same,Plat,9 h,115.4 x10_4/uL
same,RBC,9 h,605 x10_4/ul
same,Ret,9 h,8.2%
same,WBC,9 h,82.6 x10_2/uL
same,KIDNEY_L,9 h,1 g
same,KIDNEY_R,9 h,1 g
same,KIDNEY_TOTAL,9 h,2 g
same,LIVER,9 h,8.7 g
same,A/G,9 h,1.6
same,ALP,9 h,1051.6 IU/L
same,ALT,9 h,30.8 IU/L
same,AST,9 h,63 IU/L
same,BUN,9 h,11.4 mg/dL
same,CRE,9 h,0.3 mg/dL
same,Ca,9 h,10.6 mg/dL
same,Cl,9 h,103.8 meq/L
same,DBIL,9 h,0.07 mg/dL
same,GLC,9 h,200.2 mg/dL
same,IP,9 h,10.3 mg/dL
same,K,9 h,3.8 meq/L
same,LDH,9 h,132.4 IU/L
same,Na,9 h,141.6 meq/L
same,PL,9 h,140.6 mg/dL
same,RALB,9 h,3.3 g/dL
same,TBIL,9 h,0.1 mg/dL
same,TC,9 h,75 mg/dL
same,TG,9 h,43 mg/dL
same,TP,9 h,5.4 g/dL
same,gamma-GTP,9 h,1.2 IU/L
same,TERMINAL_BW,24 h,223.4 g
same,APTT,24 h,18.9 s
same,Bas,24 h,0%
same,Eos,24 h,0.8%
same,Fbg,24 h,204.6 mg/dL
same,Hb,24 h,13.3 g/dL
same,Ht,24 h,40%
same,Lym,24 h,76.2%
same,MCH,24 h,21.5 pg
same,MCHC,24 h,33.3%
same,MCV,24 h,64.5 fL
same,Mono,24 h,2.4%
same,Neu,24 h,19.8%
same,PT,24 h,12.7 s
same,Plat,24 h,125.2 x10_4/uL
same,RBC,24 h,621 x10_4/ul
same,Ret,24 h,7.3%
same,WBC,24 h,85.6 x10_2/uL
same,KIDNEY_L,24 h,1 g
same,KIDNEY_R,24 h,1 g
same,KIDNEY_TOTAL,24 h,1.9 g
same,LIVER,24 h,10.9 g
same,A/G,24 h,1.8
same,ALP,24 h,958.6 IU/L
same,ALT,24 h,42.8 IU/L
same,AST,24 h,64.8 IU/L
same,BUN,24 h,14.6 mg/dL
same,CRE,24 h,0.4 mg/dL
same,Ca,24 h,10.9 mg/dL
same,Cl,24 h,103.8 meq/L
same,DBIL,24 h,0.1 mg/dL
same,GLC,24 h,208 mg/dL
same,IP,24 h,8.1 mg/dL
same,K,24 h,4.2 meq/L
same,LDH,24 h,119.8 IU/L
same,Na,24 h,141.4 meq/L
same,PL,24 h,144.6 mg/dL
same,RALB,24 h,3.4 g/dL
same,TBIL,24 h,0.2 mg/dL
same,TC,24 h,76.8 mg/dL
same,TG,24 h,102 mg/dL
same,TP,24 h,5.4 g/dL
same,gamma-GTP,24 h,1.4 IU/L
